Results published in US12213959B2, “Use of 3-O-sulfamoyloxy-7β-methyl-d-homo-6-oxaestra-1,3,5(10),8(9)-tetraen-17a-one to treat breast cancer” (priority 2018, dated 2025).
Several values for one entry are separate records, joined by “and”; a condition that tells them apart may be missing. Identical values can stand only once. Marks after values point to notes of the source that are not given here.

System: breast tumours in FBV/N female mice, transgenic for HER-2/neu
Assay: Antitumour activity on breast tumours of HER-2/neu transgenic mice
Type: in vivo
Conditions: for antitumour activity compared with Tamoxifen: FVB mice transgenic for HER-2/neu with breast tumours; for Average tumor volume, % of change to the initial value / Average total tumour volume, % of change to the initial value: Day 28 vs Day 0
Experimental: The study was carried out on female FVB mice transgenic for HER-2/neu of the conventional category, the strain being obtained from the mouse bank Charles River Laboratories (Italy).
Duration of the administration course was 27-28 days.
The control groups were given the olive oil (placebo).
The macroscopically detectable tumor nodes were measured in the animals once per week during the weighing process.

[1] = medicament 2 mg/kg daily i.g., Day 0
[2] = medicament 2 mg/kg daily i.g., Day 7
[3] = medicament 2 mg/kg daily i.g., Day 14
[4] = medicament 2 mg/kg daily i.g., Day 21
[5] = medicament 2 mg/kg daily i.g., Day 28
[6] = medicament 2 mg/kg, end of observation
[7] = medicament 20 mg/kg daily i.g., Day 0
[8] = medicament 20 mg/kg daily i.g., Day 7
[9] = medicament 20 mg/kg daily i.g., Day 14
[10] = medicament 20 mg/kg daily i.g., Day 21
[11] = medicament 20 mg/kg daily i.g., Day 28
[12] = medicament 20 mg/kg, end of observation

C[C@H]1Oc2cc(OS(N)(=O)=O)ccc2C2=C1[C@@H]1CCCC(=O)[C@@]1(C)CC2 [medicament, 3-O-sulfamoyloxy-7β-methyl-O-homo-6-oxaestra-1,3,5(10),8(9)-tetraen]
antitumour activity compared with Tamoxifen: not lower than that of the reference durg, Tamoxifen | antitumour activity compared with Tamoxifen (listed as agent): more effectively than clinically used Tamoxifen | antitumour effect on the model (dose range 2.0, 20.0 and 100.0 mg/kg): no pronounced antitumour effect | Average volume of new tumours at the end of the observation period (medicament 2 mg/kg): 0.33 cm^3 | effect on frequency of stabilisations or volume of newly developing tumours (medicament 2.0 mg/kg): had no effect | relative change in the total volume of tumours versus control values (medicament 2.0 mg/kg): greater than the control values | Average volume of tumors existing at the beginning of the experiment (M) [1]: 0.27 cm^3 | Relative change of the average total volume of tumours to that of Day −1 (M) [1]: 0% | Average total volume of tumours in mice (M) (medicament 2.0 mg/kg daily i.g., Day 0): 1.24 cm^3 | Average volume of tumors existing at the beginning of the experiment (M) [2]: 0.42 cm^3 | Relative change of the average total volume of tumours to that of Day −1 (M) [2]: 59% | Average total volume of tumours in mice (M) (medicament 2.0 mg/kg daily i.g., Day 7): 1.91 cm^3 | Average volume of tumors existing at the beginning of the experiment (M) [3]: 0.6 cm^3 | Relative change of the average total volume of tumours to that of Day −1 (M) [3]: 131% | Average total volume of tumours in mice (M) (medicament 2.0 mg/kg daily i.g., Day 14): 2.71 cm^3 | Average volume of tumors existing at the beginning of the experiment (M) [4]: 0.77 cm^3 | Relative change of the average total volume of tumours to that of Day −1 (M) [4]: 210% | Average total volume of tumours in mice (M) (medicament 2.0 mg/kg daily i.g., Day 21): 3.50* cm^3 | Average volume of tumors existing at the beginning of the experiment (M) [5]: 1.11 cm^3 | Relative change of the average total volume of tumours to that of Day −1 (M) [5]: 347*** % | Average total volume of tumours in mice (M) (medicament 2.0 mg/kg daily i.g., Day 28): 5.04 cm^3 | Average tumor volume, % of change to the initial value (medicament 2 mg/kg daily i.g.): 311% | Average total tumour volume, % of change to the initial value (medicament 2.0 mg/kg daily i.g.): 307% | Absolute number of new tumours [6]: 30 | frequency of stabilisations of tumours present at initiation of treatment [6]: 5% | TGI (average tumor volume) (medicament 2 mg/kg, vs Control-3, Day 0): 29% | TGI (average total tumour volume) (medicament 2.0 mg/kg, vs Control-3, Day 0): 45% | TGI (average tumor volume) (medicament 2 mg/kg, vs Control-3, Day 7): 16% | TGI (average total tumour volume) (medicament 2.0 mg/kg, vs Control-3, Day 7): 37% | TGI (average tumor volume) (medicament 2 mg/kg, vs Control-3, Day 14): 14% | TGI (average total tumour volume) (medicament 2.0 mg/kg, vs Control-3, Day 14): 35% | TGI (average tumor volume) (medicament 2 mg/kg, vs Control-3, Day 21): 9% | TGI (average total tumour volume) (medicament 2.0 mg/kg, vs Control-3, Day 21): 31% | TGI (average tumor volume) (medicament 2 mg/kg, vs Control-3, Day 28): −14% | TGI (average total tumour volume) (medicament 2.0 mg/kg, vs Control-3, Day 28): 13% | Average volume of new tumours at the end of the observation period (medicament 20 mg/kg): 0.19±0.04 cm^3 and 0.19 cm^3 | Average total volume of tumours in mice (M) [7]: 0.41 cm^3 | Average volume of tumors existing at the beginning of the experiment (M) [7]: 0.18 cm^3 | Relative change of the average total volume of tumours to that of Day −1 (M) (medicament 20.0 mg/kg daily i.g., Day 0): 0% | Average total volume of tumours in mice (M) [8]: 0.62 cm^3 | Average volume of tumors existing at the beginning of the experiment (M) [8]: 0.28 cm^3 | Relative change of the average total volume of tumours to that of Day −1 (M) (medicament 20.0 mg/kg daily i.g., Day 7): 55% | Average total volume of tumours in mice (M) [9]: 0.94 cm^3 | Average volume of tumors existing at the beginning of the experiment (M) [9]: 0.43 cm^3 | Relative change of the average total volume of tumours to that of Day −1 (M) (medicament 20.0 mg/kg daily i.g., Day 14): 145% | Average total volume of tumours in mice (M) [10]: 1.18 cm^3 | Average volume of tumors existing at the beginning of the experiment (M) [10]: 0.54 cm^3 | Relative change of the average total volume of tumours to that of Day −1 (M) (medicament 20.0 mg/kg daily i.g., Day 21): 209** % | Average total volume of tumours in mice (M) [11]: 1.22 cm^3 | Average volume of tumors existing at the beginning of the experiment (M) [11]: 0.55 cm^3 | Relative change of the average total volume of tumours to that of Day −1 (M) (medicament 20.0 mg/kg daily i.g., Day 28): 227*** % | Average total tumour volume, % of change to the initial value (medicament 20 mg/kg daily i.g.): 198% | Average tumor volume, % of change to the initial value (medicament 20 mg/kg daily i.g.): 206% | Absolute number of new tumours [12]: 22 | frequency of stabilisations of tumours present at initiation of treatment [12]: 9% | volume of new tumours, less than the control (Control-2) value [12]: 32%
